Data from US20080200467A1, “SOLUBLE EPOXIDE HYDROLASE INHIBITORS” (Arete Therapeutics, Inc., priority 2006, published 2008).

Columns and labels:
[1] = test system: soluble epoxide hydrolase (sEH); test: Fluorescent Assay for Mouse and Human Soluble Epoxide Hydrolase (CMNPC substrate); type: biochemical
Excerpt: Fluorescent Assay for Mouse and Human Soluble Epoxide Hydrolase Recombinant mouse sEH (MsEH) and human sEH (HsEH) were produced in a baculovirus expression system as previously reported. Grant et al., J. Biol. Chem., 268:17628-17633 (1993); Beetham et al., Arch. Biochem. Biophys., 305:197-201 (1993). The expressed proteins were purified from cell lysate by affinity chromatography. Wixtrom et al., Anal. Biochem., 169:71-80 (1988). Protein concentration was quantified using the Pierce BCA assay using bovine serum albumin as the calibrating standard. The preparations were at least 97% pure as judged by SDS-PAGE and scanning densitometry. They contained no detectable esterase or glutathione transferase activity which can interfere with the assay. The assay was also evaluated with similar results in crude cell lysates or homogenate of tissues. The IC50s for each inhibitor were according to the following procedure: [drawing 218] […] Jones P. D. et. al.; Analytical Biochemistry 2005; 343: pp. 66-75) Bis/Tris HCl 25 mM pH 7.0 containing 0.1 mg/mL of BSA (buffer […] at 0.25 mM in DMSO. Mother solution of enzyme in buffer A (Mouse sEH at 6 μg/mL and Human sEH at 5 μg/mL). Inhibitor dissolved in DMSO at the appropriate concentration. In a black 96 well plate, fill all the wells with 150 μL of buffer A. Add 2 μL of DMSO in well A2 and A3, and then add 2 μL of inhibitor solution in A1 and A4 through A12. Add 150 μL of buffer A in row A, then mix several time and transfer 150 μL to row B. Repeat this operation up to row H. The 150 μL removed from row H is discarded. Add 20 μL of buffer A in column 1 and 2, then add 20 μL of enzyme solution to column 3 to 12. Incubate the plate for 5 minutes in the plate reader at 30° C. During incubation prepare the working solution of substrate by mixing 3.68 mL of buffer A (4×0.920 mL) with 266 μL (2×133 μL) of substrate solution). At t=0, add 30 μL of working substrate solution with multi-channel pipette labeled “Briggs 303” and start the reading ([S]final: 5 μM). Read with ex: 330 nm (20 nm) and em: 465 nm (20 nm) every 30 second for 10 minutes. The velocities are used to analyze and calculate the IC50s. Tables 4-6 show the activity of compounds when tested with the assay at 50, 500, 5000, 50000, and 500000 nM.

[2] = test system: soluble epoxide hydrolase (sEH); test: Fluorescent Assay for Mouse and Human Soluble Epoxide Hydrolase (CMNPC substrate); type: biochemical; conditions: Concentration 2000 nM

O=C(Nc1cccc(OCc2ccccc2)c1)C(O)C12CC3CC(CC(C3)C1)C2 (stereo not shown) [Compound 110, 2-Adamantan-1-yl-N-(3-benzyloxy-phenyl)-2-hydroxy-acetamide]
% Inhibition ([1]; Concentration 500 nM): 79%
melting point: 130 to 132 °C

O=C(Nc1ccc(-n2ccnc2)cc1)C(O)C12CC3CC(CC(C3)C1)C2 (stereo not shown) [Compound 119, 2-Adamantan-1-yl-2-hydroxy-N-(4-imidazol-1-yl-phenyl)-acetamide]
% Inhibition ([1]; Concentration 50000 nM): 98%
melting point: 219 to 220 °C

O=C(NCCc1ccc(C(=O)N2CCOCC2)cc1)C(O)CCC12CC3CC(CC(C3)C1)C2 (stereo not shown) [Compound 157, 4-Adamantan-1-yl-2-hydroxy-N-(4-(morpholine-4-carbonyl)phenethyl)butanamide]
% Inhibition [2]: 81%

O=C(Nc1cccc(OCc2ccccc2)c1)C(=O)C12CC3CC(CC(C3)C1)C2 [Compound 13, 2-Adamantan-1-yl-N-(3-benzyloxy-phenyl)-2-oxo-acetamide]
% Inhibition ([1]; Concentration 5000 nM): 86%
melting point: 106 to 107 °C

O=C(CCC12CC3CC(CC(C3)C1)C2)C(=O)NCCc1ccc(OCc2ccccc2)cc1 [Compound 25]
% Inhibition [2]: 23%

Cc1ccc(S(=O)(=O)N2CCC(NC(=O)C(=O)CC34CC5CC(CC(C5)C3)C4)CC2)cc1 [Compound 19, 3-Adamantan-1-yl-2-oxo-N-[1-(toluene-4-sulfonyl)-piperidin-4-yl]-propionamide]
% Inhibition ([1]; Concentration 5000 nM): 99%

O=C(NCCc1ccc(OCc2ccccc2)cc1)C(O)Cc1ccc(C(F)(F)F)cc1 (stereo not shown) [Compound 144, N-(4-(Benzyloxy)phenethyl)-2-hydroxy-3-(4-(trifluoromethyl)phenyl)propanamide]
% Inhibition ([1]; Concentration 50000 nM): 66%

O=C(NC1CCN(S(=O)(=O)c2cccc(C(F)(F)F)c2)CC1)C(O)CC12CC3CC(CC(C3)C1)C2 (stereo not shown) [Compound 133, 3-Adamantan-1-yl-2-hydroxy-N-(1-(3-(trifluoromethyl)phenylsulfonyl)piperidin-4-yl)propanamide]
% Inhibition ([1]; Concentration 500 nM): 83%

COC(=O)CCCCCCCCCCCNC(=O)C(O)CC12CC3CC(CC(C3)C1)C2 (stereo not shown) [Compound 160, Methyl 12-(3-adamantan-1-yl-2-hydroxypropanamido)dodecanoate]
% Inhibition ([1]; Concentration 500 nM): 81%

COC1CCC(NC(=O)C(=O)c2ccc(C(F)(F)F)cc2)CC1 (stereo not shown) [Compound 4, N-(4-Methoxy-cyclohexyl)-2-oxo-2-(4-trifluoromethyl-phenyl)-acetamide]
% Inhibition ([1]; Concentration 50000 nM): 87%

O=C(O)c1ccc(Oc2ccc(CCNC(=O)C(O)CCC34CC5CC(CC(C5)C3)C4)cc2)cc1 (stereo not shown) [Compound 154, 4-(4-(2-(4-Adamantan-1-yl-2-hydroxybutanamido)ethyl)phenoxy)benzoic acid]
% Inhibition ([1]; Concentration 5000 nM): 81%

Cc1ccc(S(=O)(=O)N2CCC(NC(=O)C(O)c3ccc(C(F)(F)F)cc3)CC2)cc1 (stereo not shown) [Compound 108, 2-Hydroxy-N-[1-(toluene-4-sulfonyl)-piperidin-4-yl]-2-(4-trifluoromethyl-phenyl)-acetamide]
% Inhibition ([1]; Concentration 50000 nM): 80%

O=C(Nc1ccc(OCc2ccccc2)cc1)C(=O)C12CC3CC(CC(C3)C1)C2 [Compound 20]
% Inhibition ([1]; Concentration 5000 nM): 93%

O=C(NCCc1ccc(F)cc1)C(O)CCC12CC3CC(CC(C3)C1)C2 (stereo not shown) [Compound 145, 4-Adamantan-1-yl-N-(4-fluorophenethyl)-2-hydroxybutanamide]
% Inhibition ([1]; Concentration 5000 nM): 95%

O=C(NCCc1ccc(OCc2ccccc2)cc1)C(O)C12CC3CC(CC(C3)C1)C2 (stereo not shown) [Compound 150, N-(4-(Benzyloxy)phenethyl)-2-adamantyl-2-hydroxyacetamide]
% Inhibition ([1]; Concentration 5000 nM): 87%

Cc1ccc(S(=O)(=O)N2CCC(CNC(=O)C(O)CC34CC5CC(CC(C5)C3)C4)CC2)cc1 (stereo not shown) [Compound 122, 3-Adamantan-1-yl-2-hydroxy-N-[1-(toluene-4-sulfonyl)-piperidin-4-ylmethyl]-propionamide]
% Inhibition ([1]; Concentration 500 nM): 88%
